According to patent US7208524B2, “5-amidino-2-hydroxybenzenesulfonamide derivatives, pharmaceutical compositions containing the same and intermediates for their preparation” (Kissei Pharmaceutical Co., Ltd., priority 2000, dated 2007):

Experiments:
[1] = target: T1, human thrombin (Homo sapiens, UniProt P00734); experiment: Measurement of inhibitory activity for thrombin (S-2238 chromogenic substrate); type: biochemical; conditions: S-2238, 10 minutes at 37° C., pH 8.4
T1 construct: human thrombin (Sigma Chemical Company); purchased Sigma Chemical Company
Procedure: (§1) 2.5 μL of a dimethylsulfoxide solution of a test compound, 187.5 μL of 100 mM tris-200 mM NaCl buffer (pH 8.4) and 50 μL of 1 mM S-2238 (Daiichi Pure Chemicals) aqueous solution were poured into 96 well microplate. Then 10 μL of 2.0 U/mL human thrombin (Sigma Chemical Company) in gelatin-glycine buffer was added and the mixture was incubated for 10 minutes at 37° C. The reaction was terminated with the addition of 50 μL of 60% acetic acid and absorbance (405 nm) was measured by a microplate reader (SPECTRAmax 250, Molecular Devices).
The group with 2.5 μL of the dimethylsulfoxide solution instead of the test compound solution was defined as the control, and the group with 10 μL of the gelatin-glycine buffer solution instead of human thrombin was defined as the blank. The concentration of a test compound that inhibited the absorbance of control by 50% (IC50) was obtained, and this value was used as the index of inhibitory activity for thrombin.

[2] = tested on: normal human plasma; experiment: Measurement of anticoagulation effects (prolongation of plasma prothrombin time)
Procedure: Two μL of a dimethylsulfoxide solution of a test compound was put in the process tube and then incubated at 37° C. One minute after addition of 48 μL of normal human plasma (George King Bio-Medical Inc), 100 μL of plasma prothrombin time reagent (Boehringer Mannheim) prewarmed at 37° C. was added into the mixture. Prothrombin time was measured with a coagulometer (ST4, Boehringer Mannheim).
The group without any test compound was defined as the control. The concentration of test compound that prolonged the clotting time of the control by 2 times (CT2) was obtained and, this value was used as the index of anticoagulation activity.

[3] = target: T2, human activated blood coagulation factor X (Homo sapiens, UniProt P00742); experiment: Measurement of inhibitory activity for activated blood coagulation factor X (S-2222 chromogenic substrate); type: biochemical; conditions: S-2222, 10 minutes at 37° C., pH 8.4
T2 construct: purchased Calbiochem
Procedure: as §1, with “S-2222” for “S-2238”, “0.6” for “2.0”, “activated blood coagulation factor X (Calbiochem)” for “thrombin (Sigma Chemical Company)”
Target sequence in this assay (P00742 235-488 limits assumed): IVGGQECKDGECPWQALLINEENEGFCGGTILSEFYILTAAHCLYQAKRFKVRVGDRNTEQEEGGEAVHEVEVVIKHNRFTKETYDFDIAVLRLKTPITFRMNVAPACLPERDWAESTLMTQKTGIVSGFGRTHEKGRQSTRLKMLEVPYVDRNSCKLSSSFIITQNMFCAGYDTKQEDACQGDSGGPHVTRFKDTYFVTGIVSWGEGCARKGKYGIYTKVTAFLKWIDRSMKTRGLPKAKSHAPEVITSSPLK
Target sequence in this assay (P00742 41-179 partner limits assumed): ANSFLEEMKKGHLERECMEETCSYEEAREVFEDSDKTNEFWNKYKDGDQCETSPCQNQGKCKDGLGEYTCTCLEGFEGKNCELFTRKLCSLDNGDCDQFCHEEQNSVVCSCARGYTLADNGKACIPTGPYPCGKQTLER
The group with 2.5 μL of the dimethylsulfoxide solution instead of the test compound solution was defined as the control, and the group with 10 μL of the gelatin-glycine buffer solution instead of human activated blood coagulation factor X was defined as the blank.

[4] = tested on: Male ICR mice; experiment: Acute toxicity test; type: in vivo; conditions: 50.0 mg/10.0 mL/kg into tail vein, survival judged for 24 hours, groups of 5
Procedure: Male ICR mice aged 7 weeks (SLC) were divided into several groups consisted of 5 mice. A solution containing a test compound was prepared at the concentration that became the administration volume of the test compound to be 50.0 mg/10.0 mL/kg. The solution was administered into tail vein at an infusion rate of 1 mL/minute. Observations were performed at constant interval, and survival rate was judged for 24 hours. Results were shown as Table 5, and no death case was observed.

[5] = target: T2, human activated blood coagulation factor X; experiment: Oral administration test in rats: anti-activated blood coagulation factor X activity in plasma; type: in vivo, rat; conditions: male Wistar rats, 30 minutes after oral administration, 30 mg/kg; plasma tested against human factor Xa
Procedure: (§2) Male Wistar rats aged 6–9 weeks (SLC) fasted overnight were used. A test compound was dissolved or suspended in 0.5% methylcellulose solution at the concentration of 6.0 mg/mL. Then 5.0 mL/kg of that was orally administrated into the rats. Before and at proper time points after administration of the test compound, citrated (1:10 dilution, 3.13% sodium citrate) blood was collected from the jugular vein. Plasma samples were obtained by centrifugation.
2.5 μL of plasma sample, 200 μL of 100 mM tris-200 mM NaCl buffer (pH 8.4) and 10 μL of 0.06 U/mL human activated blood coagulation factor X (Calbiochem) in gelatin-glycine buffer were poured into 96 well microplate. Then 50 μL of 1 mM S-2222 (Daiichi Pure Chemicals) aqueous solution was added and the mixture was incubated for 10 minutes at room temperature. The reaction was terminated with the addition of 50 μL of 60% acetic acid and absorbance (405 nm) was measured by a microplate reader (SPECTRAmax 250, Molecular Devices).
The group with 2.5 μL of the control plasma instead of the plasma sample was defined as the control, and the group with 10 μL of gelatin-glycine buffer solution instead of human activated blood coagulation factor X was defined as the blank. The inhibitory % of plasma sample was calculated from absorbance of the control as 100% and this value was used as the index of anti-activated blood coagulation factor X activity in plasma.
(§3) 4) Results of anti-activated blood coagulation factor X activity in plasma and PT ratio at 30 minutes after oral administration of each test compound at a dose of 30 mg/kg were shown as Table 4.
Target sequence in this assay (P00742 235-488 limits assumed): as the sequence (P00742 235-488 limits assumed) above
Target sequence in this assay (P00742 41-179 limits assumed): as the sequence (P00742 41-179 partner limits assumed) above

[6] = tested on: plasma prothrombin time; experiment: Oral administration test in rats: prothrombin time (PT) of plasma; type: in vivo, rat; conditions: male Wistar rats, 30 minutes after oral administration, 30 mg/kg; PT after administration to that before
Procedure: as §2
Fifty μL of plasma was put in the process tube and then incubated at 37° C. One minute later, 100 μL of plasma PT reagent (Boehringer Mannheim) prewarmed at 37° C. was added into the mixture. PT was measured with a coagulometer (ST4, Boehringer Mannheim).
The ratio of PT at each time point after administration of the test compound to that of before administration was used as the index of anticoagulation activity.
as §3

Row | IC50 [1] [nM] | IC50 [3] [nM] | Anti-activated blood coagulation factor X activity in plasma (%) [5] [%] | Compound | Anticoagulation activity (μM): concentration that prolonged the clotting time of the control by 2 times (CT2) [2] [µM] | Death case [4] | PT ratio [6]
1 | > 100000 | – | – | CS(=O)(=O)c1ccccc1-c1ccc(CCNS(=O)(=O)c2cc(C(=N)N)ccc2O)c(OCC(=O)O)c1.Cl [Compound 33, [4-[2-(5-Carbamimidoyl-2-hydroxybenzenesulfonylamino)-ethyl]-2′-methanesulfonoylbiphenyl-3-yloxy]acetic acid hydrochloride] | 0.52 | – | –
2 | > 100000 | 16 | – | CC(C)c1ccc(CCNS(=O)(=O)c2cc(C(=N)N)ccc2O)c(S(N)(=O)=O)c1 [Compound 52, 5-Carbamimidoyl-2-hydroxy-N-[2-(4-isopropyl-2-sulfamoylphenyl)ethyl]benzenesulfonamide] | – | – | –
3 | > 100000 | 51 | – | Cc1nc(CN(CCc2ccc(C(C)C)cc2OCC(=O)O)S(=O)(=O)c2cc(C(=N)N)ccc2O)cs1 [Compound 53, [2-[2-[(5-Carbamimidoyl-2-hydroxybenzenesulfonyl)-(2-methyl-1,3-thiazol-4-ylmethyl)amino]ethyl]-5-isopropylphenoxy]acetic acid] | – | – | –

Further lines, the compound ahead of its results:

Row | Compound | IC50 [1] [nM] | IC50 [3] [nM] | Anti-activated blood coagulation factor X activity in plasma (%) [5] [%] | Anticoagulation activity (μM): concentration that prolonged the clotting time of the control by 2 times (CT2) [2] [µM] | Death case [4] | PT ratio [6]
4 | CC(C)c1ccc(CCNS(=O)(=O)c2cc(C(=N)N)ccc2O)c(OCC(=O)O)c1 [Compound 42, [2-[2-(5-Carbamimidoyl-2-hydroxybenzenesulfonylamino)-ethyl]-5-isopropylphenoxy]acetic acid] | > 100000 | 100 | – | 2.4 | 0/5 | –
5 | CCOC(=O)COc1cc(-c2ccccc2S(C)(=O)=O)ccc1CCNS(=O)(=O)c1cc(C(=N)NO)ccc1O [Compound 43, Ethyl[4-[2-[2-hydroxy-5-(N-hydroxycarbamimidoyl)-benzenesulfonylamino]ethyl]-2′-mthanesulfonylbiphenyl-3-yloxy]acetate] | – | – | 32.0 | – | – | 1.31
6 | CCCCOC(=O)COc1cc(-c2ccccc2S(C)(=O)=O)ccc1CCNS(=O)(=O)c1cc(C(=N)NO)ccc1O.Cl [Compound 48, n-Butyl[4-[2-[2-Hydroxy-5-(N-hydroxycarbamimidoyl)-benzenesulfonylamino]ethyl]-2′-methanesulfonylbiphenyl-3-yloxy]acetate hydrochloride] | – | – | 58.2 | – | – | 1.50
7 | CS(=O)(=O)c1ccccc1-c1ccc(CCNS(=O)(=O)c2cc(C(=N)NO)ccc2O)c(OCC(=O)OC2CCCCC2)c1 [Compound 49, Cyclohexyl[4-[2-[2-hydroxy-5-(N-hydroxycarbamimidoyl)-benzenesulfonylamino]ethyl]-2′-methanesulfonylbiphenyl-3-yloxy]acetate] | – | – | 51.4 | – | – | 1.43
